Here are results for two compounds from patent publication US5214046A, “Substituted aminoalkoxybenzene anti-fungicidal compositions and use” (Hoffmann-La Roche Inc., priority 1989, dated 1993).

The nature of data set [1]: Acute toxicity in the case of subcutaneous administration to mice. Particulars: mouse, in vivo, sc. The method, then: The IC50 values are determined graphically and are given in μg of test substance per ml. Table I contains IC50 values determined in the above test for representative members of the class of compound defined by formula I as well as data concerning the acute toxicity in the case of subcutaneous administration to mice (LD50 in mg/kg).

For data set [2], the target named is 2,3-epoxysqualene-lanosterol cyclase (Candida albicans, UniProt Q04782). In words: Inhibition of 2,3-epoxysqualene-lanosterol cyclase from Candida albicans (cell-free extract, 14C-squalene epoxide). It counts as biochemical.
Sequence of 2,3-epoxysqualene-lanosterol cyclase (Q04782 whole entry): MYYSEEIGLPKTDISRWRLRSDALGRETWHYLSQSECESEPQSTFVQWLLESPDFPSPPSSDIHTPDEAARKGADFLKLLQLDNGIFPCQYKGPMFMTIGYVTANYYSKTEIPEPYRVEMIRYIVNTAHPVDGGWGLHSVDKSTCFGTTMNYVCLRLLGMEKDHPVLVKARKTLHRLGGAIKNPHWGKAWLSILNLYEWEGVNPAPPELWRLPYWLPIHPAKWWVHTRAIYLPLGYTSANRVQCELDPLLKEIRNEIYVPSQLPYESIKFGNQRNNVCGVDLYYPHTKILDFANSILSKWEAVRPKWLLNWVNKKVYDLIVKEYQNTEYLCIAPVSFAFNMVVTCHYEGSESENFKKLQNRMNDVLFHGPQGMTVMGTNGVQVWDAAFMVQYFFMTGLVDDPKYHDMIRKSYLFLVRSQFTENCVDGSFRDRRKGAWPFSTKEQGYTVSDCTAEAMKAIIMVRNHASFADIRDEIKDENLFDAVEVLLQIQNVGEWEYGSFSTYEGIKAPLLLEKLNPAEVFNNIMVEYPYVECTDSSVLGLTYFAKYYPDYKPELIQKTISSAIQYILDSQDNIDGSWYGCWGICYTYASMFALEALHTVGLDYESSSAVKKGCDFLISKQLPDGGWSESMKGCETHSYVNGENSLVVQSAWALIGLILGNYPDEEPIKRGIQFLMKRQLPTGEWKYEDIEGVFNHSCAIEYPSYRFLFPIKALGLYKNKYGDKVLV

The term LD50 denotes the dose expected to kill half of the subjects tested. The low end stands for a more toxic substance, the high end for a less toxic substance. In general, IC50 refers to the concentration that inhibits the measured activity by half. Read a low IC50 as greater potency. The compound `CN(C)CCCCOc1ccc(C(=O)c2ccccc2)cc1` [Compound 1, 4-[[4-(dimethylamino)butyl]oxy]benzophenone] had an LD50 in data set [1] greater than 4000 mg/kg. Also, the IC50 in data set [2] is 2.86 µM.
The corresponding values for `C=CCN(C)CCCCCCOc1ccc(C(=O)c2ccccc2)cc1` [Compound 31, 4-[[6-(allylmethylamino)hexyl]oxy]benzophenone] are 1000 to 2000 mg/kg and 0.125 µM.
